Drawing on patent US20240101528A1, “SUBSTITUTED PYRAZOLO PIPERIDINE CARBOXYLIC ACIDS” (BAYER AKTIENGESELLSCHAFT, priority 2020, published 2024), this text covers EC50 and MEC for 14 molecules.

For the experiment, the target named is T1, recombinant guanylate cyclase reporter cell line (Rattus norvegicus, UniProt P20595).
T1 construct: expressed in transfected cells
T1 sequence (P20595 1-619): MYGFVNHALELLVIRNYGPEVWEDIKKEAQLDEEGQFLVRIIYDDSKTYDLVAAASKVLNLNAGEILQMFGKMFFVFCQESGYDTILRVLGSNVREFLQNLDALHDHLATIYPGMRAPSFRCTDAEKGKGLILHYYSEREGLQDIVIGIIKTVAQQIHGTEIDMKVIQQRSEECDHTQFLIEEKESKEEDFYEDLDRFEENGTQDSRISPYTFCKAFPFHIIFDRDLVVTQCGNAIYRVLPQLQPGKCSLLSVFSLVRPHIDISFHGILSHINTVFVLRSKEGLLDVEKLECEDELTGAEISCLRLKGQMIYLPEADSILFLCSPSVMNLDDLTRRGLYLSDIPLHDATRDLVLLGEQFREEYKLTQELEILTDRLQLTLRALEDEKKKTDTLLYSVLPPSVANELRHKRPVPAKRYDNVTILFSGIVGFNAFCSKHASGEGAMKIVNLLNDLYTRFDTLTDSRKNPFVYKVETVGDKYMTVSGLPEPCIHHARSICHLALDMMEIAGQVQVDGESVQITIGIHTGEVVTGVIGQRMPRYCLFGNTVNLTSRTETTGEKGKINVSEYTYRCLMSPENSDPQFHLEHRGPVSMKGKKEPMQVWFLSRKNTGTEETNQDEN
T1 sequence (P19686 1-690 partner): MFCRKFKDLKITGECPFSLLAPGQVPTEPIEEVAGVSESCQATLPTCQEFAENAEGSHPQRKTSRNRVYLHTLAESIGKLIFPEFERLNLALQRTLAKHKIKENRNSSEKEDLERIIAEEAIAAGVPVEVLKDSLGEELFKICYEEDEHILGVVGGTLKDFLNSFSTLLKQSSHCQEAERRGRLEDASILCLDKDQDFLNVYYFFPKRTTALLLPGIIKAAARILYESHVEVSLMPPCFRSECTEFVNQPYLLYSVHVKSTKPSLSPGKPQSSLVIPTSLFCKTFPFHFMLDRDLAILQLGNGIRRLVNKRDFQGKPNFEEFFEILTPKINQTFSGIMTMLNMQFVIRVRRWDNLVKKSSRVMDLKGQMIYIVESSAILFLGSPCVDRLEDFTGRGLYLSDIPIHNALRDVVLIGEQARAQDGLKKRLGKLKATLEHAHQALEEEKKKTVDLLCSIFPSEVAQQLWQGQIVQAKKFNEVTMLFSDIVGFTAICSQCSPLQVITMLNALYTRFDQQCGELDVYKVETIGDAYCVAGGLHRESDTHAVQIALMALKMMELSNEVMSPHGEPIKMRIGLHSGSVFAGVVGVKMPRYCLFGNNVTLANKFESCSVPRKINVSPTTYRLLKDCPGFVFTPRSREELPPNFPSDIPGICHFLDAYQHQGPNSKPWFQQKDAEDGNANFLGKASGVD
Briefly: Effect on a recombinant guanylate cyclase reporter cell line. Type of experiment: cell-based. The conditions noted are these: for EC50: half maximal effective concentration; for MEC: minimum effective concentration. The procedure:
B-1. Effect on a Recombinant Guanylate Cyclase Reporter Cell Line
The cellular activity of the compounds according to the invention was determined using a recombinant guanylate cyclase reporter cell line, as described in F. Wunder et al., Anal. Biochem. 339, 104-112 (2005).

Counter-ions that a name gives are not always drawn.

With `O=C(O)c1cnn(C2CCCN(c3cc(Cl)ccc3-c3ccc(N4CCN(CC5CC5(F)F)CC4)cc3)C2)c1C(F)F` (mixture of isomers) [Example 27, 1-{1-[4-Chloro-4′-(4-{[2,2-difluorocyclopropyl]methyl}piperazin-1-yl)[biphenyl]-2-yl]piperidin-3-yl}-5-(difluoromethyl)-1H-pyrazole-4-carboxylic acid hydrochloride (Diastereomeric mixture 2)], the EC50 came to 2.8 nM and the MEC is reported as 0.3 nM.

As for `O=C(O)c1cnn(C2CCCN(c3cc(Cl)ccc3-c3ccc(N4CCN(CC5CC5F)CC4)cc3)C2)c1C(F)F` (mixture of isomers) [Example 32, 1-[1-[5-chloro-2-[4-[4-[(trans-2-fluorocyclopropyl)methyl]piperazin-1-yl]phenyl]phenyl]-3-piperidyl]-5-(difluoromethyl)pyrazole-4-carboxylic acid hydrochloride (Diastereoisomeric mixture 2)], the half-maximal effective concentration (EC50) stood at 2.7 nM and the MEC amounted to 0.3 nM.

With `O=C(O)c1cnn(C2CCCN(c3cc(Cl)ccc3-c3ccc(N4CCN(CC5CC5C(F)(F)F)CC4)cc3)C2)c1C(F)F` (mixture of isomers) [Example 38, 1-{1-[4-Chloro-4′-(4-{[cis-2-(trifluoromethyl)cyclopropyl]methyl}piperazin-1-yl) [biphenyl]-2-yl]piperidin-3-yl}-5-(difluoromethyl)-1H-pyrazole-4-carboxylic acid hydrochloride (Diastereoisomeric Mixture 1)], the 50% effective concentration (EC50) stood at 7.1 nM and the MEC came to 1.0 nM.

Turning to `O=C(O)c1cnn(C2CCCN(c3cc(Cl)ccc3-c3ccc(N4CCN(CC5CC5C(F)(F)F)CC4)cc3)C2)c1C(F)F` (mixture of isomers) [Example 39, 1-{1-[4-Chloro-4′-(4-{[cis-2-(trifluoromethyl)cyclopropyl]methyl}piperazin-1-yl) [biphenyl]-2-yl]piperidin-3-yl}-5-(difluoromethyl)-1H-pyrazole-4-carboxylic acid hydrochloride (Diastereomeric Mixture 2)], the 50% effective concentration (EC50) stood at 14.5 nM and the MEC worked out at 1.0 nM.

As to `O=C(O)c1cnn(C2CCCN(c3cc(Cl)ccc3-c3ccc(N4CCN(CC5CC56CC6)CC4)cc3)C2)c1C(F)F` (mixture of isomers) [Example 41, 1-[1-[5-Chloro-2-[4-[4-(spiro[2.2]pentan-2-ylmethyl)piperazin-1-yl]phenyl]phenyl]-3-piperidyl]-5-(difluoromethyl)pyrazole-4-carboxylic acid hydrochloride (Diastereomeric mixture 2)], the EC50 turned out to be 8.3 nM and the MEC is recorded as 1.0 nM.

Take `O=C(O)c1cnn(C2CCCN(c3cc(Cl)ccc3-c3ccc(N4CCN(CC5CC5(F)F)CC4)cc3)C2)c1C(F)F` (single isomer, unassigned; diastereomer 1) [Example 28, 1-{1-[4-Chloro-4′-(4-{[2,2-difluorocyclopropyl]methyl}piperazin-1-yl)[biphenyl]-2-yl]piperidin-3-yl}-5-(difluoromethyl)-1H-pyrazole-4-carboxylic acid hydrochloride (Diastereomer 1)]: the 50% effective concentration (EC50) worked out at 0.8 nM and the MEC was found to be 0.3 nM.

For `O=C(O)c1cnn(C2CCCN(c3cc(Cl)ccc3-c3ccc(N4CCN(CC5CC5(F)F)CC4)cc3)C2)c1C(F)F` (single isomer, unassigned; diastereomer 2) [Example 29, 1-{1-[4-Chloro-4′-(4-{[2,2-difluorocyclopropyl]methyl}piperazin-1-yl)[biphenyl]-2-yl]piperidin-3-yl}-5-(difluoromethyl)-1H-pyrazole-4-carboxylic acid hydrochloride (Diastereomer 2)], the 50% effective concentration (EC50) was determined as 2 nM and the MEC was 0.3 nM.

For the molecule `O=C(O)c1cnn(C2CCCN(c3cc(Cl)ccc3-c3ccc(N4CCN(CC5CC5(F)F)CC4)cc3)C2)c1C(F)F` (single isomer, unassigned; diastereomer 3) [Example 30, 1-{1-[4-Chloro-4′-(4-{[2,2-difluorocyclopropyl]methyl}piperazin-1-yl)[biphenyl]-2-yl]piperidin-3-yl}-5-(difluoromethyl)-1H-pyrazole-4-carboxylic acid hydrochloride (Diastereomer 3)], the concentration giving a half-maximal response (EC50) was determined as 2 nM and the MEC is 0.3 nM.

In the case of `O=C(O)c1cnn(C2CCCN(c3cc(Cl)ccc3-c3ccc(N4CCN(CC5CC5F)CC4)cc3)C2)c1C(F)F` (single isomer, unassigned; diastereomer 3) [Example 33, 1-[1-[5-Chloro-2-[4-[4-[(trans-2-fluorocyclopropyl)methyl]piperazin-1-yl]phenyl]phenyl]-3-piperidyl]-5-(difluoromethyl)pyrazole-4-carboxylic acid hydrochloride (Diastereomer 3)], the EC50 worked out at 4.1 nM and the MEC came out at 0.3 nM.

As for `O=C(O)c1cnn(C2CCCN(c3cc(Cl)ccc3-c3ccc(N4CCN(CC5CC5(F)F)CC4)cc3)C2)c1C(F)F` (single isomer, unassigned; diastereomer 4) [Example 31, 1-{1-[4-Chloro-4′-(4-{[2,2-difluorocyclopropyl]methyl}piperazin-1-yl)[biphenyl]-2-yl]piperidin-3-yl}-5-(difluoromethyl)-1H-pyrazole-4-carboxylic acid hydrochloride (Diastereomer 4)], the EC50 stood at 5.1 nM and the MEC was found to be 1.0 nM.

As for `O=C(O)c1cnn(C2CCCN(c3cc(Cl)ccc3-c3ccc(N4CCN(CC5CC5F)CC4)cc3)C2)c1C(F)F` (single isomer, unassigned; diastereomer 4) [Example 34, 1-[1-[5-Chloro-2-[4-[4-[(trans-2-fluorocyclopropyl)methyl]piperazin-1-yl]phenyl]phenyl]-3-piperidyl]-5-(difluoromethyl)pyrazole-4-carboxylic acid hydrochloride (Diastereomer 4)], the EC50 was found to be 3.4 nM and the MEC is 0.3 nM.

Regarding `CN1CCN(c2ccc(-c3ccc(Cl)cc3N3CCCC(n4ncc(C(=O)O)c4C(F)F)C3)cc2)CC1` (single isomer, unassigned; enantiomer 1) [Example 1, 1-{1-[4-Chloro-4′-(4-methylpiperazin-1-yl)[biphenyl]-2-yl]piperidin-3-yl}-5-(difluoromethyl)-1H-pyrazole-4-carboxylic acid hydrochloride (Enantiomer 1)], the half-maximal effective concentration (EC50) came to 96.5 nM and the MEC was determined as 10.0 nM.

Take `CCN1CCN(c2ccc(-c3ccc(Cl)cc3N3CCCC(n4ncc(C(=O)O)c4C(F)F)C3)cc2)CC1` (single isomer, unassigned; enantiomer 1) [Example 3, 1-{1-[4-Chloro-4′-(4-ethylpiperazin-1-yl)[biphenyl]-2-yl]piperidin-3-yl}-5-(difluoromethyl)-1H-pyrazole-4-carboxylic acid hydrochloride (Enantiomer 1)]: the EC50 came to 24.6 nM and the MEC was found to be 3.0 nM.

In the case of `O=C(O)c1cnn(C2CCCN(c3cc(Cl)ccc3-c3ccc(N4CCN(C5CC5)CC4)cc3)C2)c1C(F)F` (single isomer, unassigned; enantiomer 1) [Example 8, 1-{1-[4-Chloro-4′-(4-cyclopropylpiperazin-1-yl)[biphenyl]-2-yl]piperidin-3-yl}-5-(difluoromethyl)-1H-pyrazole-4-carboxylic acid hydrochloride (Enantiomer 1)], the EC50 is 24.5 nM and the MEC is 3.0 nM.
